Assay results published in patent publication US11801242B2, “Compositions and methods for adjuvant cancer therapeutics” (DUKE UNIVERSITY, priority 2018, dated 2023).

How the values were obtained:
Rev1^−/− MEF cells = experiment: Clonogenic survival assay; format: cell-based, mouse
Description: 300 cells were plated in triplicate in 6-well plates for 24 hours. Cisplatin (cis-diammineplatinum(II) dichloride, Sigma-Aldrich) was added to relevant wells for 24 hours. All plates were incubated at 37° C. for 24 hours. Media were changed the next day and in fresh media RE01 (at 1.5 μM concentration) was added to untreated or cisplatin-treated cells for another 24 hours. Media were changed at the end of these combination treatments, and cells were allowed to recover for 7 days. To stain the resulting colonies, media were aspirated and the fixative (50% methanol and 10% glacial acetic acid) was added for 10 minutes, followed by the addition of 0.02% Coomassie brilliant blue R-250 stain (ThermoFisher) in methanol: acetic acid: water in a ratio of 46.5:7:46.5 (v/v/v). Colonies that stained blue and contained at least 40 cells were counted. Relative cell survival or colony formation was calculated by dividing colony counts from treated samples by the DMSO or untreated controls.
REV1 was knocked down by transiently transfecting SMARTpool: ON-TARGETplus REV1 siRNA by nucleofection. The siRNA was mixed with the nucleofection buffer Mouse/Rat Hepatocyte Nucleofector™ Kit (Lonza) and electroporated using the Nucleofector™ 2b device. Full-length mouse Rev1 on the pC3 plasmid (Clontech) was nucleofected using the same buffers and device into Rev1^−/− cells to complement the REV1 function.

HT1080 cells = experiment: Gapped plasmid TLS assay, cisplatin 1,2-GG lesion; format: cell-based, human; conditions: pre-treatment with RE01 1.5, 3.0 and 15.0 μM for 24 hours
Source text: The double stranded plasmid pUC19 with ampicillin resistance was modified to include the oligonucleotide containing cisplatin 1,2-GG lesion on one strand and a gapped region across it. Briefly, the 16mer cisplatin-containing oligonucleotide was flanked by two 21mer regular DNA strands (5′-[…]-3′ (SEQ ID NO: 2) on the 5′ end and 5′-[…]-3′ (SEQ ID NO: 3) on the 3′ end) and elongated to a 58mer lesion-containing single strand DNA. After linearizing the plasmid by restriction endonucleases BstAPI and BspQI (New England Biolabs), the 58mer oligonucleotide was mixed with two scaffolds (5′-TGCATGCGCGCTACGACG-3′ (SEQ ID NO: 4) and 5′-[…]-3′ (SEQ ID NO: 5)) and ligated with the linear pUC19 plasmid to build up a circular plasmid containing a site-specific cisplatin 1,2-GG lesion and a 16-nucleotide gap on the opposite strand.
A competitor gapped plasmid that was three bases longer (started from a 19mer oligonucleotide 5′-CTCTCTAGGCTCACTTCTA-3′ (SEQ ID NO: 6)) than the lesion-containing plasmid was used as the internal control. The cells were pre-treated with either DMSO or RE01 (1.5, 3.0 and 15.0 μM) for 24 hours. […] The gap-filling efficiency by TLS was calculated by dividing the output ratio obtained from HPLC-MS with the input ratio (4:1) and the results were normalized to 100%.

A375 cells = experiment: qRT-PCR of p21 mRNA; format: cell-based, human; conditions: combination RE01 1.5 μM and cisplatin 1 μM
Description: Total RNA was isolated by using the RNeasy Mini kit (Qiagen) from cells treated with RE01 (1.5 μM), cisplatin (1 μM) and a combination of both RE01 (1.5 μM) and cisplatin (1 μM). 5 ng of RNA from each sample was mixed with 10 μl of Applied Biosystems™ PowerUp™ SYBR™ Green Master Mix (ThermoFisher), 1 μl of MultiScribe™ Reverse Transcriptase (ThermoFisher), 0.1 μl of RNaseOUT™ Recombinant Ribonuclease Inhibitor and 5.9 μl of RNase-free water, and run in a one-step qRT-PCR reaction. Each reaction was run in triplicate. Primers used were: p21 F 5′-[…]-3′ (SEQ ID NO: 9), p21 R 5-CGGCGTTTGGAGTGG TAGAAA-3′ (SEQ ID NO: 10); GAPDH F 5′-[…]-3′ (SEQ ID NO: 11), GAPDH R 5′-[…]-3′ (SEQ ID NO: 12).

## CC(C)CC(=O)c1c(Nc2ccc(Cl)cc2Cl)[nH]c2c(Cl)ccc([N+](=O)[O-])c2c1=O [RE01, 8-chloro-2-((2,4-dichlorophenyl)amino)-3-(3-methylbutanoyl)-5-nitroquinolin-4(1H)-one]
Rev1^−/− MEF cells; RE01 1.5 μM + cisplatin 0.5 μM vs cisplatin alone
  colony forming ability: but not in Rev1^−/− MEF cells
Rev1^−/− MEF cells; cells complemented with plasmid encoding REV1, RE01 1.5 μM, cisplatin 1 μM
  RE01 mediated sensitization to cisplatin: fully restored
HT1080 cells
  bypass efficiency of 1,2-GG cisplatin DNA adduct: suppresses
A375 cells
  levels of the p21 biomarker: elevated levels
